The target in the experiment is T1, T. k. RNAP (Thermococcus kodakarensis RNA polymerase) (Thermococcus kodakarensis, UniProt Q5JE32+Q5JE33+Q5JE34).
T1 construct: gene rpo1N; assembled on synthetic RNA:DNA scaffold (EC+10); with DNA-directed RNA polymerase subunit Rpo3; DNA-directed RNA polymerase subunit Rpo4; DNA-directed RNA polymerase subunit Rpo5; DNA-directed RNA polymerase subunit Rpo6; DNA-directed RNA polymerase subunit Rpo7; DNA-directed RNA polymerase subunit Rpo10; DNA-directed RNA polymerase subunit Rpo11; DNA-directed RNA polymerase subunit Rpo12
Description: chemical quench-flow single-nucleotide addition, global fit (MENOTR). To be noted: 25 °C, pH 8.39, Mg2+, heparin trap; elongation complex EC+10 on RNA:DNA scaffold; kinetic-model Kd with k1 fixed at 1 × 10^8 M^-1 s^-1; active site. It counts as biochemical. The source says: chemical quench-flow single-nucleotide addition, global fit (MENOTR) on T. k. RNAP (Thermococcus kodakarensis RNA polymerase)

As a reminder, the Kd is the concentration at which binding is half-saturated. A lower Kd goes with higher affinity.

The compound `Nc1ncnc2c1ncn2[C@@H]1O[C@H](COP(=O)(O)OP(=O)(O)OP(=O)(O)O)[C@@H](O)[C@H]1O` [ATP] came in with a Kd of 2.98 µM.

Source of the values: paper PMC12570502, “Kinetic characterization of RNA synthesis catalyzed by the model hyperthermophilic archaeon Thermococcus kodakarensis RNA polymerase” (mSphere, 2025).
